Measured values taken from ChEMBL document CHEMBL4431357, “Discovery of a novel class of highly potent inhibitors of the p53-MDM2 interaction by structure-based design starting from a conformational argument” (Bioorg Med Chem Lett, 2016).
pIC50: −log10 of the molar value.

Target: Tumour suppressor p53/oncoprotein Mdm2 (Homo sapiens, UniProt Q00987)
Assay: Inhibition of C-terminal biotin-tagged streptavidin labelled human MDM2 ( 2 to 188 residues)/Cy5-labelled p53 (18 to 26 residues)(unknown origin) interaction after 15 mins by TR-FRET assay
Assay type: protein assay

Tumour suppressor p53/oncoprotein Mdm2, sequence (P04637 whole entry, the tested form may be a part): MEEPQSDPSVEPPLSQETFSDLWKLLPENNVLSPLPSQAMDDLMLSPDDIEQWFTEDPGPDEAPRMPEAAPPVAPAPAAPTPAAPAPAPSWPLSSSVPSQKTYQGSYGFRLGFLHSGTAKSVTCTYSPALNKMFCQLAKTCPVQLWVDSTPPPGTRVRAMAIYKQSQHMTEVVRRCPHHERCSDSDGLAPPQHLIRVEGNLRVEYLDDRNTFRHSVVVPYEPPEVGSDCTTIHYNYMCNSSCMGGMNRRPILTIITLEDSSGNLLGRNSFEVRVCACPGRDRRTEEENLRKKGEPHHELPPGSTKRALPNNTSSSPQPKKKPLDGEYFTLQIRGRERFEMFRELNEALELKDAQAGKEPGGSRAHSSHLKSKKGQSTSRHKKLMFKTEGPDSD
Tumour suppressor p53/oncoprotein Mdm2, sequence (Q00987 whole entry, the tested form may be a part): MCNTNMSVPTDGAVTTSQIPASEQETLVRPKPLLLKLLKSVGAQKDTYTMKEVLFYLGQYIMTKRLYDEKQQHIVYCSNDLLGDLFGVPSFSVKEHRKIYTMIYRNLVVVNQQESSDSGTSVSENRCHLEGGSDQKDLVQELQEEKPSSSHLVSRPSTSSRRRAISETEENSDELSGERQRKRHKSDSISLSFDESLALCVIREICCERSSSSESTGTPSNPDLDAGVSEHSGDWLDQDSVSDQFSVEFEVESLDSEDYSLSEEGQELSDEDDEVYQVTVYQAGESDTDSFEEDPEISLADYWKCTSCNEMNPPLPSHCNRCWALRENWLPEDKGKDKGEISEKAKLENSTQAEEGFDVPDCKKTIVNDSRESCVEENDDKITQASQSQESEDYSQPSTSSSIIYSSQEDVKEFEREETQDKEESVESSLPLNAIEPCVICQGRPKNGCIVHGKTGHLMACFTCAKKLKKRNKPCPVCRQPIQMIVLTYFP

pIC50 | SMILES
5.82 | Cc1ccc(N2C(=O)c3[nH]nc(C)c3C2c2ccc(Cl)cc2)cc1 (stereo not given)
8.38 | Cc1cc(Cl)ccc1C1c2c(C(C)C)n[nH]c2C(=O)N1c1cc(Cl)ccc1C (racemic)
7.49 | CC(C)c1n[nH]c2c1C(c1ccc(Cl)cc1)N(c1cccc(Cl)c1)C2=O (racemic)
7.74 | CC(C)(C)c1n[nH]c2c1C(c1ccc(Cl)cc1)N(c1cccc(Cl)c1)C2=O (racemic)
6.46 | Cc1n[nH]c2c1C(c1ccc(Cl)cc1)N(c1cccc(Cl)c1)C2=O (racemic)
